Values belong to the compound of their own block, whether it stands above or below them.
Legend:
human ENPP2 = human ENPP2 (Homo sapiens (Human), UniProt Q13822); assay: Measurement of Human ENPP2 Inhibitory Activity; format: biochemical; settings: 1 μM test compound; 16:0-LPC substrate, choline production; read-out: ENPP2 inhibition rate(%) (1 μM)
Method: 10 μL of a test compound solution (10% dimethyl sulfoxide) at each concentration and 40 μL of a 5 μg/mL human ENPP2 solution (buffer A: 100 mmol/L Tris-HCl (pH 9.0), 500 mmol/L NaCl, 5 mmol/L MgCl2, 0.05% Triton X-100) were mixed, 50 μL of a 2 mmol/L 16:0-lysophosphatidylcholine (LPC) solution (buffer A) was further added to react at 37° C. for 24 hours. Subsequently, to 10 μL of the reaction solution was added 90 μL of a measurement buffer (0.5 mmol/L aminoantipyrine, 0.3 mmol/L N-ethyl-N-(2-hydroxy-3-sulfopropyl)-3-methylaniline, 1 U/mL peroxidase, 3 U/mL choline oxidase, 100 mmol/L Tris-HCl (pH 8.5), 5 mmol/L CaCl2) to react at 37° C. for 20 minutes, and spectrophotometric determination was performed at 555 nm.
Using a standard curve, a choline production amount (enzyme activity) in each test compound was calculated, and the inhibitory activity rate of each test compound was calculated, wherein the enzyme activity in a positive control to which a test compound is not added, was a 0% inhibition rate, and the enzyme activity in a negative control to which a test compound and human ENPP2 are not added, were 100% inhibition. Further, concerning the present compounds shown in Table 3, an IC50 value was calculated from inhibitory activity rate at each concentration.

[1] = tested on: urethra internal pressure of a rat; assay: Measurement of Urethra Internal Pressure in Rat Under Anesthesia; format: in vivo; settings: SD male rat under urethane anesthesia, intravenous
Excerpt: A SD male rat (Crl: CD(SD), Charles River Laboratories Japan, Inc., 7-10 weeks old) was anesthetized by subcutaneous administration of 1.5 g/kg urethane at a back of a neck. After neck median incision, a jugular vein catheter for intravenous administration was inserted. A lower abdominal part was median incised, and a urethra was ligated at around pubis. A urethral catheter for measuring a urethra internal pressure, equipped with a collar at a tip and filled with a physiological saline was inserted into a urethra through an incised bladder top, and ligation-fixed at a bladder neck part. The urethral catheter was connected to a pressure transducer (manufactured by Nihon Kohden Corporation), and a urethra internal pressure was measured. […] A urethra internal pressure reduction rate (%) was calculated based on a urethra internal pressure after compound administration, wherein a value obtained by subtracting a postmortem baseline value (minimum value of urethra internal pressure for 10 minutes after administration of somnopentyl) from a urethra internal pressure value before compound administration (0 minute) was 100%.

inhibition at 1 µM (human ENPP2): 98.6%
SMILES: O=C(CC12CCC(C(=O)O)(CC1)CC2)N1CCc2c(n(Cc3ccc(Cl)cc3F)c3ncccc23)C1 [Example 31(142), 4-{2-[9-(4-chloro-2-fluorobenzyl)-5,6,8,9-tetrahydro-7H-pyrido[4′,3′:4,5]pyrrolo[2,3-b]pyridin-7-yl]-2-oxoethyl}bicyclo[2.2.2]octane-1-carboxylic acid]

SMILES: O=C(O)CCCCC(=O)N1CCc2c(n(CCCc3ccccc3)c3ccccc23)C1 [Example 3, 6-oxo-6-[9-(3-phenylpropyl)-1,3,4,9-tetrahydro-2H-beta-carbolin-2-yl]hexanoic acid]
urethra internal pressure ([1]; dose 0.1, 0.3, 1.0 mg/kg, FIG. 1): significantly reduced a urethra internal pressure

SMILES: O=C(C[C@H]1CC[C@H](C(=O)O)CC1)N1CCc2c(n(Cc3ccc(Cl)cc3F)c3ncccc23)C1 [Example 31(24), trans-4-{2-[9-(4-chloro-2-fluorobenzyl)-5,6,8,9-tetrahydro-7H-pyrido[4′,3′:4,5]pyrrolo[2,3-b]pyridin-7-yl]-2-oxoethyl}cyclohexanecarboxylic acid]
urethra internal pressure ([1]; dose 0.03, 0.1, 0.3 mg/kg, FIG. 2): significantly reduced a urethra internal pressure

— patent US9636330B2, “Tetrahydrocarboline derivative” (ONO PHARMACEUTICAL CO., LTD., priority 2010, dated 2017)
